Results as given in PubChem BioAssay (NCI).
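Each compound was tested at five concentrations against cells in 96-well plates for 48 hours. At the TGI there is no net growth.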

Experiments:
Test in all cases: inhibition of tumour cell growth, NCI panel, 48 h
COLO 205 colon = tested on: COLO 205 colon
DLD-1 colon = tested on: DLD-1 colon
CAKI-1 renal = tested on: CAKI-1 renal
SF-539 CNS = tested on: SF-539 CNS
NCI-H460 lung = tested on: NCI-H460 lung
ACHN renal = tested on: ACHN renal
RXF-631 renal = tested on: RXF-631 renal
LOX IMVI melanoma = tested on: LOX IMVI melanoma
T-47D breast = tested on: T-47D breast
EKVX NSCLC = tested on: EKVX NSCLC
OVCAR-8 ovarian = tested on: OVCAR-8 ovarian
UO-31 renal = tested on: UO-31 renal
XF 498 CNS = tested on: XF 498 CNS
SF-268 CNS = tested on: SF-268 CNS
SW-620 colon = tested on: SW-620 colon
MDA-MB-231 breast = tested on: MDA-MB-231 breast
OVCAR-4 ovarian = tested on: OVCAR-4 ovarian
DU-145 prostate = tested on: DU-145 prostate
HCT-15 colon = tested on: HCT-15 colon
SK-OV-3 ovarian = tested on: SK-OV-3 ovarian
M14 melanoma = tested on: M14 melanoma
TK-10 renal = tested on: TK-10 renal
HS 578T breast = tested on: HS 578T breast
DMS 114 small cell lung = tested on: DMS 114 small cell lung
SK-MEL-2 melanoma = tested on: SK-MEL-2 melanoma
HT29 colon = tested on: HT29 colon
HL-60(TB) leukemia = tested on: HL-60(TB) leukemia
A498 renal = tested on: A498 renal
U251 CNS = tested on: U251 CNS
NCI-H226 lung = tested on: NCI-H226 lung
UACC-62 melanoma = tested on: UACC-62 melanoma
SK-MEL-5 melanoma = tested on: SK-MEL-5 melanoma
NCI-H23 lung = tested on: NCI-H23 lung
MALME-3M melanoma = tested on: MALME-3M melanoma
SK-MEL-28 melanoma = tested on: SK-MEL-28 melanoma
UACC-257 melanoma = tested on: UACC-257 melanoma
OVCAR-5 ovarian = tested on: OVCAR-5 ovarian
A549 NSCLC = tested on: A549 NSCLC
OVCAR-3 ovarian = tested on: OVCAR-3 ovarian
BT-549 breast = tested on: BT-549 breast
RPMI-8226 leukemia = tested on: RPMI-8226 leukemia
LXFL 529 NSCLC = tested on: LXFL 529 NSCLC
M19-MEL melanoma = tested on: M19-MEL melanoma
KM12 colon = tested on: KM12 colon
MOLT-4 leukemia = tested on: MOLT-4 leukemia
SN12C renal = tested on: SN12C renal
SNB-19 CNS = tested on: SNB-19 CNS
HCC-2998 colon = tested on: HCC-2998 colon
HOP-62 NSCLC = tested on: HOP-62 NSCLC
786-0 renal = tested on: 786-0 renal
K-562 leukemia = tested on: K-562 leukemia
IGROV1 ovarian = tested on: IGROV1 ovarian
DMS 273 small cell lung = tested on: DMS 273 small cell lung
MDA-N = tested on: MDA-N
MDA-MB-435 = tested on: MDA-MB-435
RXF 393 renal = tested on: RXF 393 renal
PC-3 prostate = tested on: PC-3 prostate
KM20L2 colon = tested on: KM20L2 colon
SNB-78 CNS = tested on: SNB-78 CNS
NCI/ADR-RES ovarian = tested on: NCI/ADR-RES ovarian
HOP-92 NSCLC = tested on: HOP-92 NSCLC
SNB-75 CNS = tested on: SNB-75 CNS
HOP-18 NSCLC = tested on: HOP-18 NSCLC
SF-295 CNS = tested on: SF-295 CNS
NCI-H522 lung = tested on: NCI-H522 lung
HCT-116 colon = tested on: HCT-116 colon

In the case of C[N+](C)(C)CC1CCCC1=O (stereo unspecified), the TGI (COLO 205 colon) is reported as 2.99 µM, the TGI (DLD-1 colon) is reported as 3.15 µM and the TGI (CAKI-1 renal) is reported as 6.61 µM. For the same compound, the TGI (SF-539 CNS) was 6.05 µM, the TGI (NCI-H460 lung) was 38.9 µM and the TGI (ACHN renal) was 9.94 µM. The TGI (RXF-631 renal) was 32.1 µM, the TGI (LOX IMVI melanoma) was 2.33 µM and the TGI (T-47D breast) was 0.448 µM. The TGI (EKVX NSCLC) was 4.62 µM, the TGI (OVCAR-8 ovarian) was 4.99 µM and the TGI (UO-31 renal) was 8.79 µM. The TGI (XF 498 CNS) was 3.87 µM, the TGI (SF-268 CNS) was 20.8 µM and the TGI (SW-620 colon) was 1.07 µM. For the same compound, the TGI (MDA-MB-231 breast) was 2.77 µM, the TGI (OVCAR-4 ovarian) was 1.8 µM and the TGI (DU-145 prostate) was 0.0951 µM. For the same compound, the TGI (HCT-15 colon) was 7.44 µM, the TGI (SK-OV-3 ovarian) was 30.4 µM and the TGI (M14 melanoma) was 2.61 µM. It also gave a TGI (TK-10 renal) of 6.76 µM, a TGI (HS 578T breast) of 16.6 µM and a TGI (DMS 114 small cell lung) of 8.31 µM. It also gave a TGI (SK-MEL-2 melanoma) of 12.2 µM, a TGI (HT29 colon) of 3.34 µM and a TGI (HL-60(TB) leukemia) of over 20.2 µM. It also gave a TGI (A498 renal) of 17.7 µM, a TGI (U251 CNS) of 29.3 µM and a TGI (NCI-H226 lung) of 34.6 µM. The TGI (UACC-62 melanoma) was 5.67 µM, the TGI (SK-MEL-5 melanoma) was 12.5 µM and the TGI (NCI-H23 lung) was 9.67 µM. The TGI (MALME-3M melanoma) was 1.61 µM, the TGI (SK-MEL-28 melanoma) was 3.72 µM and the TGI (UACC-257 melanoma) was 13.3 µM. The TGI (OVCAR-5 ovarian) was 14.8 µM, the TGI (A549 NSCLC) was 35.7 µM and the TGI (OVCAR-3 ovarian) was 6.87 µM. It also gave a TGI (BT-549 breast) of 2.32 µM, a TGI (RPMI-8226 leukemia) of 11.2 µM and a TGI (LXFL 529 NSCLC) of 2.57 µM. The TGI (M19-MEL melanoma) was 5.52 µM, the TGI (KM12 colon) was 20.6 µM and the TGI (MOLT-4 leukemia) was 4.4 µM. It also gave a TGI (SN12C renal) of 5.56 µM, a TGI (SNB-19 CNS) of 50.8 µM and a TGI (HCC-2998 colon) of 29.9 µM. The TGI (HOP-62 NSCLC) was over 68 µM, the TGI (786-0 renal) was 5.32 µM and the TGI (K-562 leukemia) was over 100 µM. For the same compound, the TGI (IGROV1 ovarian) was 32.3 µM, the TGI (DMS 273 small cell lung) was 19.9 µM and the TGI (MDA-N) was 3.21 µM. It also gave a TGI (MDA-MB-435) of 3.22 µM, a TGI (RXF 393 renal) of 5.3 µM and a TGI (PC-3 prostate) of 2.91 µM. It also gave a TGI (KM20L2 colon) of 7.79 µM, a TGI (SNB-78 CNS) of 9.86 µM and a TGI (NCI/ADR-RES ovarian) of 4.05 µM. For the same compound, the TGI (HOP-92 NSCLC) was 2.66 µM, the TGI (SNB-75 CNS) was 7.98 µM and the TGI (HOP-18 NSCLC) was 3.3 µM. The TGI (SF-295 CNS) was 36.4 µM, the TGI (NCI-H522 lung) was 0.0171 µM and the TGI (HCT-116 colon) was 3.74 µM.
